Experiments:
[1] = test system: small flower umbrella sedge; experiment: Test B flooded paddy test; format: in vivo, Cyperus difformis; details: 1000 g ai/ha, visual rating, scale 0 to 100 (0 no effect, 100 complete control), 13 to 15 days
How it was run: (§1)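 Visual control ratings, 0–100 versus untreated controls, taken after 13 to 15 days in the greenhouse. Blackgrass received a postemergence spray at the 1- to 4-leaf stage (2–18 cm); ducksalad, umbrella sedge and barnyardgrass were flooded-paddy treated at 2 leaves.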

[2] = test system: ducksalad; experiment: Test C flooded paddy test; format: in vivo, Heteranthera limosa
[3] = test system: smallflower umbrella sedge; experiment: Test C flooded paddy test; format: in vivo, Cyperus difformis
[4] = test system: lambsquarters; experiment: Test B pre-/postemergence herbicide test; format: in vivo, Chenopodium album; details: for Plant response rating, Lambsquarters: preemergence; for Lambsquarters plant response rating: postemergence, visual rating, scale 0 (no effect) to 100 (complete control)
How it was run: (§2)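 Flooded paddy rice and barnyardgrass were treated at the 2-leaf stage; upland plantings received compound either on sown seed or on 1- to 4-leaf seedlings. All were kept 13–15 days in a greenhouse and scored visually, 0–100, relative to untreated plants.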

[5] = test system: ducksalad; experiment: Test B flooded paddy test; format: in vivo, Heteranthera limosa; details: 1000 g ai/ha, visual rating, scale 0 to 100 (0 no effect, 100 complete control), 13 to 15 days
How it was run: as §1

[6] = test system: velvetleaf; experiment: Test B pre-/postemergence herbicide test; format: in vivo, Abutilon theophrasti; details: for Plant response rating, Velvetleaf: preemergence; for Velvetleaf plant response rating: postemergence, visual rating, scale 0 (no effect) to 100 (complete control)
How it was run: as §2

[7] = test system: wild oat; experiment: Test B postemergence herbicide test; format: in vivo, Avena fatua; details: postemergence, visual rating, scale 0 (no effect) to 100 (complete control)
How it was run: (§3)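 Plants grow to 1- to 4-leaf stage (2–18 cm) for postemergence spraying, or to 2-leaf stage for the paddy test. Formulated compound is applied. Greenhouse holding lasts 13–15 days. Response is scored visually relative to controls, 0 no effect to 100 complete control; a dash means no result.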

[8] = test system: large crabgrass; experiment: Test B pre-/postemergence herbicide test; format: in vivo, Digitaria sanguinalis; details: for Plant response rating, Crabgrass, Large: preemergence; for Crabgrass, Large plant response rating: postemergence, visual rating, scale 0 (no effect) to 100 (complete control)
How it was run: as §2

[9] = test system: cocklebur; experiment: Test B pre-/postemergence herbicide test; format: in vivo, Xanthium strumarium; details: for Plant response rating, Cocklebur: preemergence; for Cocklebur plant response rating: postemergence, visual rating, scale 0 (no effect) to 100 (complete control)
How it was run: (§4)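 Response was scored visually 13 to 15 days after treatment against untreated greenhouse controls, 0 meaning no effect and 100 complete control. Formulations (solvent mixture plus surfactant) went onto soil after planting, onto foliage of 1- to 4-leaf plants, and onto 2-leaf plants in a flooded paddy set including rice and barnyardgrass.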

[10] = test system: giant foxtail; experiment: Test B pre-/postemergence herbicide test; format: in vivo, Setaria faberi; details: for Plant response rating, Foxtail, Giant: preemergence; for Foxtail, Giant plant response rating: postemergence, visual rating, scale 0 (no effect) to 100 (complete control)
How it was run: as §2

[11] = test system: rice; experiment: Test C flooded paddy test; format: in vivo, Oryza sativa
How it was run: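 Injury scored visually against controls on a 0 (no effect) to 100 (complete control) scale, 12 to 14 days after treatment in greenhouse. Flooded paddy plants treated at 2-leaf stage; postemergence plants at 1- to 4-leaf stage, 2 to 18 cm tall.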

[12] = test system: blackgrass; experiment: Test B postemergence herbicide test; format: in vivo, Alopecurus myosuroides; details: postemergence, visual rating, scale 0 (no effect) to 100 (complete control)
How it was run: as §1

[13] = test system: rice; experiment: Test B pre-/postemergence herbicide test; format: in vivo, Oryza sativa; details: preemergence
How it was run: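 Evaluation is visual, comparing treated with control plants on a scale where 0 means no effect and 100 means full control. Treatments were preemergence, or postemergence on seedlings 2–18 cm tall, and held 13–15 days in the greenhouse.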

[14] = test system: Surinam grass; experiment: Test B pre-/postemergence herbicide test; format: in vivo, Urochloa decumbens; details: for Plant response rating, Surinam Grass: preemergence; for Surinam Grass plant response rating: postemergence, visual rating, scale 0 (no effect) to 100 (complete control)
How it was run: as §2

[15] = test system: barnyardgrass; experiment: Test B pre-/postemergence herbicide test; format: in vivo, Echinochloa crus-galli; details: for Plant response rating, Barnyardgrass: preemergence; for Barnyardgrass plant response rating: postemergence, visual rating, scale 0 (no effect) to 100 (complete control)
How it was run: as §4

[16] = test system: barnyardgrass; experiment: Test C flooded paddy test; format: in vivo, Echinochloa crus-galli
How it was run: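 Visual rating, 0 (no effect) to 100 (complete control), vs. controls at 12–14 d in greenhouse. Postemergence: 1–4-leaf plants, 2–18 cm. Paddy: flooded, barnyardgrass at 2-leaf stage.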

[17] = test system: rice; experiment: Test B flooded paddy test; format: in vivo, Oryza sativa; details: 1000 g ai/ha, visual rating, scale 0 to 100 (0 no effect, 100 complete control), 13 to 15 days
How it was run: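 After treating 2-leaf paddy plants or 2–18 cm postemergence plants (1 to 4 leaves) with formulated chemical, researchers kept them in a greenhouse for 13–15 days. Effects were judged visually versus controls: 0 indicates none, 100 total control.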

[18] = test system: wheat; experiment: Test B postemergence herbicide test; format: in vivo, Triticum aestivum; set-up: key to Wheat plant response rating: 0 = no effect, 100 = complete control; details: postemergence, 500 g ai/ha; visual rating, scale 0 (no effect) to 100 (complete control)
How it was run: as §3

[19] = test system: corn; experiment: Test B pre-/postemergence herbicide test; format: in vivo, Zea mays; details: for Plant response rating, Corn: preemergence; for Corn plant response rating: postemergence, visual rating, scale 0 (no effect) to 100 (complete control)
How it was run: as §2

[20] = test system: pigweed; experiment: Test B pre-/postemergence herbicide test; format: in vivo, Amaranthus retroflexus; details: for Plant response rating, Pigweed: preemergence; for Pigweed plant response rating: postemergence, visual rating, scale 0 (no effect) to 100 (complete control)
How it was run: as §2

[21] = test system: barnyardgrass; experiment: Test B flooded paddy test; format: in vivo, Echinochloa crus-galli; details: 1000 g ai/ha, visual rating, scale 0 to 100 (0 no effect, 100 complete control), 13 to 15 days
How it was run: as §1

[22] = test system: morningglory; experiment: Test B pre-/postemergence herbicide test; format: in vivo, Ipomoea coccinea; details: for Morningglory plant response rating: postemergence, visual rating, scale 0 (no effect) to 100 (complete control)
How it was run: as §4

[23] = 62 g ai/ha, scale 0 to 100 (0 no effect, 100 complete control)
[24] = 125 g ai/ha, scale 0 to 100 (0 no effect, 100 complete control)
[25] = 250 g ai/ha, scale of 0 to 100, 0 is no effect, 100 is complete control
[26] = 500 g ai/ha, visual rating after 12 to 14 days, scale 0 to 100 (0 no effect, 100 complete control)
[27] = 500 g ai/ha, visual rating 0-100, 0 no effect, 100 complete control
[28] = 125 g ai/ha, 0 to 100 scale, 0 is no effect, 100 is complete control

CCn1nc(C(C)(C)C)cc1C(=O)Nc1cc(C(=O)N2CC=CC2)ccn1 [Compound 142]
Sedge, Umbrella plant response rating [1]: 80 | Ducksalad plant response rating [2, 23]: 75 | Ducksalad plant response rating [2, 24]: 90 | Ducksalad plant response rating [2, 25]: 95 | Plant response rating, Ducksalad [2, 26]: 100 | Sedge, Umbrella plant response rating [3, 23]: 75 | Sedge, Umbrella plant response rating [3, 24]: 80 | Sedge, Umbrella plant response rating [3, 25]: 80 | Plant response rating, Sedge, Umbrella [3, 26]: 90 | Plant response rating, Lambsquarters [4, 27]: 100 | Lambsquarters plant response rating ([4]; 125 g ai/ha): 60 | Lambsquarters plant response rating ([4]; 500 g ai/ha): 80 | Plant response rating, Lambsquarters [4, 28]: 100 | Ducksalad plant response rating [5]: 90 | Plant response rating, Velvetleaf [6, 27]: 100 | Velvetleaf plant response rating ([6]; 125 g ai/ha): 10 | Velvetleaf plant response rating ([6]; 500 g ai/ha): 60 | Plant response rating, Velvetleaf [6, 28]: 80 | Oat, Wild plant response rating ([7]; 125 g ai/ha): 20 | Oat, Wild plant response rating ([7]; 500 g ai/ha): 20 | Plant response rating, Crabgrass, Large [8, 27]: 100 | Crabgrass, Large plant response rating ([8]; 125 g ai/ha): 0 | Crabgrass, Large plant response rating ([8]; 500 g ai/ha): 10 | Plant response rating, Crabgrass, Large [8, 28]: 80 | Plant response rating, Cocklebur [9, 27]: 40 | Cocklebur plant response rating ([9]; 125 g ai/ha): 40 | Cocklebur plant response rating ([9]; 500 g ai/ha): 40 | Plant response rating, Cocklebur [9, 28]: 30 | Plant response rating, Foxtail, Giant [10, 27]: 100 | Foxtail, Giant plant response rating ([10]; 125 g ai/ha): 30 | Foxtail, Giant plant response rating ([10]; 500 g ai/ha): 30 | Plant response rating, Foxtail, Giant [10, 28]: 60 | Rice plant response rating [11, 23]: 70 | Rice plant response rating [11, 24]: 70 | Rice plant response rating [11, 25]: 70 | Plant response rating, Rice [11, 26]: 70 | Blackgrass plant response rating ([12]; 125 g ai/ha): 40 | Blackgrass plant response rating ([12]; 500 g ai/ha): 40 | Plant response rating, Rice [13, 27]: 80 | Plant response rating, Rice [13, 28]: 30 | Plant response rating, Surinam Grass [14, 27]: 60 | Surinam Grass plant response rating ([14]; 125 g ai/ha): 10 | Surinam Grass plant response rating ([14]; 500 g ai/ha): 20 | Plant response rating, Surinam Grass [14, 28]: 10 | Plant response rating, Barnyardgrass [15, 27]: 100 | Barnyardgrass plant response rating ([15]; 125 g ai/ha): 0 | Barnyardgrass plant response rating ([15]; 500 g ai/ha): 10 | Plant response rating, Barnyardgrass [15, 28]: 70 | Barnyardgrass plant response rating [16, 23]: 50 | Barnyardgrass plant response rating ([16]; 125 g ai/ha, scale of 0 to 100, 0 is no effect, 100 is complete control): 65 | Barnyardgrass plant response rating [16, 25]: 80 | Plant response rating, Barnyardgrass [16, 26]: 90 | Rice plant response rating [17]: 70 | Wheat plant response rating [18]: 10 | Plant response rating, Corn [19, 27]: 0 | Corn plant response rating ([19]; 125 g ai/ha): 0 | Corn plant response rating ([19]; 500 g ai/ha): 0 | Plant response rating, Corn [19, 28]: 0 | Plant response rating, Pigweed [20, 27]: 100 | Pigweed plant response rating ([20]; 125 g ai/ha): 50 | Pigweed plant response rating ([20]; 500 g ai/ha): 60 | Plant response rating, Pigweed [20, 28]: 100 | Barnyardgrass plant response rating [21]: 90 | Plant response rating, Morningglory ([22]; 500 g ai/ha, visual rating 0-100, 0 no effect, 100 complete control, preemergence): 30 | Morningglory plant response rating ([22]; 125 g ai/ha): 0 | Morningglory plant response rating ([22]; 500 g ai/ha): 50

Reference: patent US20060069132A1, “Azolecarboxamide herbicides” (priority 2004, published 2006)
